# Data published in patent US5395932A, “2,3-,4-,5-,6-,7-,8-,9- and/or 10-substituted dibenzoxazepine compounds, pharmaceutical compositions and methods of use” (G. D. Searle & Co., priority 1993, dated 1995).
# Counter-ions that a name gives are not always drawn.
# Experiments:
# [1] = Writhing Assay (PBQ-induced writhing, analgesia); format: in vivo, Charles River male albino mice; settings: Mus musculus, po; intragastric, 30 mg per kilogram, 25 minutes before PBQ i.p.; writhes ≤ one-half median of saline control; read-out: WRITHING ASSAY, number of mice out of 9 or 10 in which test compound produced analgesia (converted)
# Protocol: The phrase "ED50 dose" as used herein means that dose of a compound or drug which produced a biological effect, such as producing analgesia, in 50% of the animals to which the compound or drug was administered. The Writhing Assay is one of the most widely-used experimental procedures for measuring the analgesic activity of different narcotic and nonnarcotic analgesic agents, and involves the continuous, chemically-induced pain of visceral origin to an animal, such as a mouse or rat. [Gyires et al., Arch. int. Pharmacodyn, 267, 131-140 (1984); […] al., Fed. Proc., 15, 494 (1956); Koster et al., Fed. Proc., 18, 412 (1959); and Witken et al., J. Pharmacol. exp. Ther., 133, 400-408 (1961).] Chemicals which may be used to induce this pain include phenylbenzoquinone (PBQ) and acetic acid. As a result of the chemical irritation to the animal, a characteristic stretching and writhing of the animal (dorsiflexion of the animal's back, extension of its hindlimbs and the strong contraction of its abdominal musculature) will generally occur. […] Drugs which reduce the number of writhes of the animal appear to restore the normal nociceptive threshold of the animal. […] Charles River male albino mice, weighing 20 to 30 grams were used in this assay. Twenty-five minutes after intragastric administration to nine or ten mice of 30 mg per kilogram of body weight of a compound of the present invention ("test compound"), […] per 10 g of body weight of a 0.025% w/v solution of PBQ was injected intraperitoneally into each mouse. Ten mice which were given saline in place of a test compound of the invention were used as a control group. Five minutes later, each mouse was individually placed into a glass beaker for observation, and the number of writhes occurring during the following ten-minute period was counted. A test compound was considered to have produced analgesia in a mouse if, in accordance with the conditions set forth above, and under the test criteria employed for this assay, after the administration of 30 mg per kilogram of body weight of a compound of the present invention to the mouse, the number of writhes elicited by a mouse injected with PBQ was equal to, or less than, one-half the median number of writhes recorded for the saline-treated control group of mice that day, as described by Taber in "Predictive Value of Analgesic Assays in Mice and Rats," Advances in Biochemical Psychopharmacology, 8, 191 (1974). The results for the particular compounds of the present invention analyzed in this assay, and discussed in the examples identified below which correspond thereto, are presented in Table 1 hereinbelow as fractions under the heading "WRITHING ASSAY." The fractions indicate the number of mice out of nine or ten in which a test compound produced analgesia. The standard initial screening dose of a test compound employed in this assay was 30 milligrams per […] of body weight. If this initial screening dose of the test compound produced analgesia in seven of nine or ten mice, then the effect of additional doses of the test compound on the writhing response was evaluated, and then the ED50 dose was generally calculated. (The slopes of the dose-response curves for all test compounds analyzed were compared as described by Tallarida and Murray, Manual of Pharmacologic Calculations, Page 11 (Springer Verlag, New York, 1981)). All ED50 doses calculated are also presented below as whole numbers in Table 1, under the heading "WRITHING ASSAY."
# [2] = target: T1, prostaglandin E2-induced contractions of segments of guinea pig ileum (Cavia porcellus, UniProt A0A286XHJ6); test: Prostaglandin (PGE) Antagonism Assay (guinea pig ileum); format: cell-based, male albino guinea pigs; settings: estimated from 3 micromolar (dose ratio ≥2) or Schild plot (dose ratio ≥5); 37° C.; read-out: PGE ANTAGONISM IN GUINEA PIG ILEUM (pA2) (converted)
# T1 construct: Segments of ileum about 2 cm long were then cut and mounted in a 10-mL tissue bath; from tissue; host or cells: guinea pig ileum segments
# T1 sequence (A0A286XHJ6 1-405): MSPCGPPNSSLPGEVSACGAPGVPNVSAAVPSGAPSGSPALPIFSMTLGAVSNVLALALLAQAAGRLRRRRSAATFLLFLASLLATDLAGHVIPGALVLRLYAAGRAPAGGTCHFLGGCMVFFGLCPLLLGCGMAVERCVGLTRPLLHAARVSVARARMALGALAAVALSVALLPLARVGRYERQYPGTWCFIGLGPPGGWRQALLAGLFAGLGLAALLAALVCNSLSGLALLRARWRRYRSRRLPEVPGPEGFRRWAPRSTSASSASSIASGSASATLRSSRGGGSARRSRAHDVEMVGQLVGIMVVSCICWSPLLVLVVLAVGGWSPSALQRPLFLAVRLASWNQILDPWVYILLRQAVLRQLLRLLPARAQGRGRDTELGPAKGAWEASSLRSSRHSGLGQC
# Excerpt: The phrase "EC50 concentration" as used herein means that concentration of a compound or drug which is necessary to elicit a 50% maximal biological response and, thus, which is necessary to elicit a 50% reduction in the contractions of guinea pig ileum segments in a prostaglandin antagonism assay. (b) Prostaglandin (PGE) Antagonism Assay In order to determine the effectiveness of several of the compounds of the present invention ("test compounds") as prostaglandin E2 antagonists,a prostaglandin antagonism assay was conducted, as described below, to determine the ability of these compounds to inhibit prostaglandin E2 -induced contractions of segments of guinea pig ileum. […] Male albino guinea pigs weighing 200 to 500 grams were sacrificed by cervical dislocation. The ilea were then quickly removed from the guinea pigs and placed in a modified Tyrode solution, a solution which is known to those skilled in the art, containing one-half of the usual amount of magnesium ions. Segments of ileum about 2 cm long were then cut and mounted in a 10-mL tissue bath containing the modified Tyrode solution. The solution was maintained at 37° C. and aerated with a gaseous mixture of 95% oxygen and 5% carbon dioxide. Data for a control prostaglandin E2 dose response curve plotting concentration of prostaglandin E2 versus the intensity of contractions, detected isotonically, was then obtained by experimentally adjusting the dose of the prostaglandin E2 being injected into the tissue bath, in a manner known by those of skill in the art. Solutions or suspensions containing an initial concentration (3 micromolar) of a test compound in modified Tyrode solution ("test solutions/suspensions") were then separately substituted for the control bath solution. Each test solution/suspension was then kept in constant contact with the ileum tissue, except for brief periods to drain the bath in preparation for rinsing with fresh test solution/suspension. A second prostaglandin E2 dose response curve was then generated for prostaglandin E2 in the presence of a test compound. A dose ratio of EC50 doses was then calculated from the results of each test in a manner known by those of skill in the art. A test compound was determined to be "active" if the initial concentration used yielded at least a two-fold shift (dose ratio greater than or equal to 2) in the dose response curve for prostaglandin E2. […] The compounds of the present invention which were tested in this assay, and for which results are presented in Table 1, correspond to the particular examples specified in Table 1.
Kb [2],Compound,responders at 30 mg/kg [1]
1000 nM,"O=C(NCc1cccnc1)c1csc(N2Cc3ccccc3Oc3ccc(Cl)cc32)n1 [Example 37, 2-(8-Chlorodibenz[b,f][1,4]oxazepin-10(11H)-yl)-N-(3-pyridinylmethyl)-4-thiazolecarboxamide, hydrochloride]",10%
158 nM,"O=C(NCc1cccs1)c1coc(CN2Cc3ccccc3Oc3ccc(Cl)cc32)n1 [Example 15, 2-[(8-chlorodibenz[b,f][1,4]oxazepin-10(11H)yl)methyl]-N-(2-thienylmethyl)-4-oxazolecarboxamide]",70%
794 nM,"CCOC(=O)c1coc(CN2Cc3ccccc3Oc3ccc(Cl)cc32)n1 [Example 7, Ethyl 2-[(8-chlorodibenz[b,f][1,4]oxazepin-10(11H)yl)methyl]-4-oxazole carboxylate]",90%
794 nM,"O=C(NCc1ccncc1)c1csc(CN2Cc3ccccc3Oc3ccc(Cl)cc32)n1 [Example 21, 2-[(8-chlorodibenzb,f][1,4]oxazepin-10(11H)yl)methyl]-N-(4-pyridinylmethyl)-4-thiazolecarboxamide, acetate, hydrochloride]",70%
1580 nM,"CCOC(=O)c1csc(CN2Cc3ccccc3Oc3ccc(Cl)cc32)n1 [Example 19, ethyl 2-[(8-chlorodibenz[b,f][1,4]oxazepine-10(11H)yl)methyl]-4-thiazolecarboxylate]",10%
200 nM,"O=C(NCCc1ccccn1)c1coc(CN2Cc3ccccc3Oc3ccc(Cl)cc32)n1 [Example 9, 2-[(8-chlorodibenz[b,f][1,4]oxazepin-10(11H)yl)methyl]-N-[2-(2-pyridinyl)ethyl]-4-oxazolecarboxamide, hydrochloride]",70%
